Paper PMC10682951, “Structure-function and rational design of a spider toxin Ssp1a at human voltage-gated sodium channel subtypes” (Frontiers in Pharmacology, 2023)
Bridge positions count the residues as written; N and C are the ends. Peptide text beside a SMILES is read from it.

Columns and labels:
Assay type in all cases: cell-based
[1] = target: T1, hNaV1.2 (Homo sapiens, UniProt Q99250); assay: Automated whole-cell patch-clamp (QPatch 16X), hNaV1.2; conditions: HEK293 cells expressing hNaV1.2 + β1 subunit; QPatch 16X; holding −80 mV, step to 0 mV; peptide incubated 2 min; 0.1% BSA; mean, SEM and n (2-7)
T1 construct: host or cells: HEK293
Procedure: (§1) Human embryonic kidney 293 (HEK293) cells stably expressing recombinant hNaV1.2, hNaV1.3 and hNaV1.7 and the β1 auxiliary subunit (Scottish Biomedical Drug Discovery, Glasgow, UK) were cultured in Minimal Essential medium (MEM) (Sigma-Aldrich, MO, United States) supplemented with 10% v/v FBS-New Zealand origin (Assay Matrix), 2 mM L-glutamine and selection antibiotics as per manufacturer’s recommendation. The HEK293 cells heterologously expressing mNaV1.7 and F813G-mNaV1.7 were generously provided by Prof Irina Vetter and were cultured in Minimal Essential medium (MEM) (Sigma-Aldrich, MO, United States) supplemented with 10% v/v FBS-New Zealand origin (Assay Matrix), 2 mM L-glutamine and hygromycin 100 μg/mL.
(§2) NaV channel currents from HEK293 cells stably expressing NaV subtypes and the β1 auxiliary subunit were recorded using an automated whole-cell patch clamp system QPatch 16X (Sophion Bioscience A/S, Ballerup, Denmark). As per the manufacturer’s guidelines, the cells were cultured for 48 h to achieve ∼80% confluency, detached using Detachin (Genlantis) and resuspended to 5 × 10^6 cells/mL in serum free media [CHO-cell SFM (Life Technologies), 25 mM HEPES and 100 U/mL penicillin/streptomycin]. The extracellular solution comprised (in mM) 1 CaCl2, 1 MgCl2, 5 HEPES, 3 KCl, 140 NaCl and 20 TEA-Cl, with the pH adjusted to 7.3 with NaOH. The intracellular solution comprised (in mM) 140 CsF, 1 EGTA, 5 CsOH, 10 HEPES and 10 NaCl, with the pH adjusted to 7.3 with CsOH. The osmolarity of both solutions were adjusted to 320 mOsm with sucrose. Compounds were prepared in extracellular solution containing 0.1% bovine serum albumin (Sigma-Aldrich). To obtain the dose-response curves, cells were maintained at a holding potential −80 mV and Na^+ currents were elicited by […] voltage steps to 0 mV from a −120 mV conditioning pulse applied for […]. Increasing concentrations of the peptide were incubated with the cells at the holding potential for 2 min before the voltage protocol was applied.
(§3) The experimental data were analysed using QPatch Assay software v5.6.4 and GraphPad Prism 7.0 using a four-parameter Hill equation [Y = Bottom + (Top—Bottom)/(1 + 10^(Log IC50—X)* Hillslope)] to fit concentration response curves by non-linear regression analysis and Student’s t-test. Data are presented as means ± standard error of mean (SEM) with number of independent experiments stated and p < 0.05 is considered statistically significant. Statistically insignificant shift in the activity is denoted by “little” while small but statistically significant shift in the activity is denoted by “slight” throughout the manuscript.

[2] = target: T2, hNaV1.3 (Homo sapiens, UniProt Q9NY46); assay: Automated whole-cell patch-clamp (QPatch 16X), hNaV1.3; conditions: HEK293 cells expressing hNaV1.3 + β1 subunit; QPatch 16X; holding −80 mV, step to 0 mV; peptide incubated 2 min; 0.1% BSA; mean, SEM and n (3-12)
T2 construct: host or cells: HEK293
Procedure: as §1, §2, §3

[3] = target: T3, hNaV1.7 (Homo sapiens, UniProt Q15858); assay: Automated whole-cell patch-clamp (QPatch 16X), hNaV1.7; conditions: HEK293 cells expressing hNaV1.7 + β1 subunit; QPatch 16X; holding −80 mV, step to 0 mV; peptide incubated 2 min; 0.1% BSA; mean, SEM and n (3-9)
T3 construct: host or cells: HEK293
Procedure: as §1, §2, §3

T2 sequence (Q9NY46 whole entry): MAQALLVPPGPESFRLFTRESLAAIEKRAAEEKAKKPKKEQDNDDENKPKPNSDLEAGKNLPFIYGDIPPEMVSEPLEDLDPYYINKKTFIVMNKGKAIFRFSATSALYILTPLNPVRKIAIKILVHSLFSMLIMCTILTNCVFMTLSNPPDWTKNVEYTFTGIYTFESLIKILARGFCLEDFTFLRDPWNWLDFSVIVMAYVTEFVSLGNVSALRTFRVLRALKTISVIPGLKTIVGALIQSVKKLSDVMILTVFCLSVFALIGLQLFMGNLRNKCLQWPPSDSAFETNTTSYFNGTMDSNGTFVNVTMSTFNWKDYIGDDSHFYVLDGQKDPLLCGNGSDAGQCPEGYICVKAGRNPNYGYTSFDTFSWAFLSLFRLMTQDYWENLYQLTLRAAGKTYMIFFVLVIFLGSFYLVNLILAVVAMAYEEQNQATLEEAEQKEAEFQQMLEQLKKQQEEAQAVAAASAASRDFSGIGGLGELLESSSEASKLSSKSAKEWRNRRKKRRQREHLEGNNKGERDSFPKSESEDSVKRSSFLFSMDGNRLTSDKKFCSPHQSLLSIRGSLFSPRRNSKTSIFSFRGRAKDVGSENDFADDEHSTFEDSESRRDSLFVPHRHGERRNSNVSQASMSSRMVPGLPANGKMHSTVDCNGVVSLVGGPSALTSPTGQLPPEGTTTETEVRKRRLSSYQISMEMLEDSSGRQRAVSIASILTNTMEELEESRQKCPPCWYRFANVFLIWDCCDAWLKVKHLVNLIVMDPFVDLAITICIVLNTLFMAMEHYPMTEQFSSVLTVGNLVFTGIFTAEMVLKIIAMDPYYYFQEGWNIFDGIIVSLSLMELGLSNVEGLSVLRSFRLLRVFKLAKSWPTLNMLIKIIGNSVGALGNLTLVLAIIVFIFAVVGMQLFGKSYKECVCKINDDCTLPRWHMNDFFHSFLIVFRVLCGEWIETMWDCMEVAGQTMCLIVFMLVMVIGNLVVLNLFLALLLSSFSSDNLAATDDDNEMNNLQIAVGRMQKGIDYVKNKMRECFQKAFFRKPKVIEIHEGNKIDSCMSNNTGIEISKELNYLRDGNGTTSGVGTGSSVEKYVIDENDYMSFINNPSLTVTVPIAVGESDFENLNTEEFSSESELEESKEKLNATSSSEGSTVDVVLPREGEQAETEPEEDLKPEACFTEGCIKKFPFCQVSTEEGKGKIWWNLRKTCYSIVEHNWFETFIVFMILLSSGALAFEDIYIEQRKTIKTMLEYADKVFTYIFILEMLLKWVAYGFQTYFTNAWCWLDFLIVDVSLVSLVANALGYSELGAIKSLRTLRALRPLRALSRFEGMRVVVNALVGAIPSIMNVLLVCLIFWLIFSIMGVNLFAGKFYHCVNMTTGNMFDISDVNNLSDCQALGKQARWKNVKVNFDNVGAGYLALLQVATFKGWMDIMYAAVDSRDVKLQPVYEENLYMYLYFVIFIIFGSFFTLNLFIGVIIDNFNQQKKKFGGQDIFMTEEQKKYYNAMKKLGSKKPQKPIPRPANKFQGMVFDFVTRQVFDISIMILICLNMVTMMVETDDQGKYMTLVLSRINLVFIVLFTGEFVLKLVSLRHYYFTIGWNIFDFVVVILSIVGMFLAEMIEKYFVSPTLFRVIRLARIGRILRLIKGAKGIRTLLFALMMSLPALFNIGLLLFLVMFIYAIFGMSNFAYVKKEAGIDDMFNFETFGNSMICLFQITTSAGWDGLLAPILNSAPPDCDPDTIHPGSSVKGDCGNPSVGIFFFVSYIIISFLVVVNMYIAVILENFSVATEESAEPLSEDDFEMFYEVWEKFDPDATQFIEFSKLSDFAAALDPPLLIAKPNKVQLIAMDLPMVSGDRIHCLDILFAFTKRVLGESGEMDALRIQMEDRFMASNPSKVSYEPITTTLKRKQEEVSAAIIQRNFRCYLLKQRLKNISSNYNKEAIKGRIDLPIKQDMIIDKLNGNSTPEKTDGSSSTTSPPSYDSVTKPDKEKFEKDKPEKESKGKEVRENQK
T2 sequence (Q07699 19-218, further chain): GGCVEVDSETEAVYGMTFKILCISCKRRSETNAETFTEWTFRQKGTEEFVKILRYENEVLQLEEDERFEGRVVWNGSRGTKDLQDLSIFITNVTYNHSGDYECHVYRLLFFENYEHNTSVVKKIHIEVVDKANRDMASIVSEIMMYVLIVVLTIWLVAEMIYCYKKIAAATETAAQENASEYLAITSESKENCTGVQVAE
T3 sequence (Q15858 whole entry): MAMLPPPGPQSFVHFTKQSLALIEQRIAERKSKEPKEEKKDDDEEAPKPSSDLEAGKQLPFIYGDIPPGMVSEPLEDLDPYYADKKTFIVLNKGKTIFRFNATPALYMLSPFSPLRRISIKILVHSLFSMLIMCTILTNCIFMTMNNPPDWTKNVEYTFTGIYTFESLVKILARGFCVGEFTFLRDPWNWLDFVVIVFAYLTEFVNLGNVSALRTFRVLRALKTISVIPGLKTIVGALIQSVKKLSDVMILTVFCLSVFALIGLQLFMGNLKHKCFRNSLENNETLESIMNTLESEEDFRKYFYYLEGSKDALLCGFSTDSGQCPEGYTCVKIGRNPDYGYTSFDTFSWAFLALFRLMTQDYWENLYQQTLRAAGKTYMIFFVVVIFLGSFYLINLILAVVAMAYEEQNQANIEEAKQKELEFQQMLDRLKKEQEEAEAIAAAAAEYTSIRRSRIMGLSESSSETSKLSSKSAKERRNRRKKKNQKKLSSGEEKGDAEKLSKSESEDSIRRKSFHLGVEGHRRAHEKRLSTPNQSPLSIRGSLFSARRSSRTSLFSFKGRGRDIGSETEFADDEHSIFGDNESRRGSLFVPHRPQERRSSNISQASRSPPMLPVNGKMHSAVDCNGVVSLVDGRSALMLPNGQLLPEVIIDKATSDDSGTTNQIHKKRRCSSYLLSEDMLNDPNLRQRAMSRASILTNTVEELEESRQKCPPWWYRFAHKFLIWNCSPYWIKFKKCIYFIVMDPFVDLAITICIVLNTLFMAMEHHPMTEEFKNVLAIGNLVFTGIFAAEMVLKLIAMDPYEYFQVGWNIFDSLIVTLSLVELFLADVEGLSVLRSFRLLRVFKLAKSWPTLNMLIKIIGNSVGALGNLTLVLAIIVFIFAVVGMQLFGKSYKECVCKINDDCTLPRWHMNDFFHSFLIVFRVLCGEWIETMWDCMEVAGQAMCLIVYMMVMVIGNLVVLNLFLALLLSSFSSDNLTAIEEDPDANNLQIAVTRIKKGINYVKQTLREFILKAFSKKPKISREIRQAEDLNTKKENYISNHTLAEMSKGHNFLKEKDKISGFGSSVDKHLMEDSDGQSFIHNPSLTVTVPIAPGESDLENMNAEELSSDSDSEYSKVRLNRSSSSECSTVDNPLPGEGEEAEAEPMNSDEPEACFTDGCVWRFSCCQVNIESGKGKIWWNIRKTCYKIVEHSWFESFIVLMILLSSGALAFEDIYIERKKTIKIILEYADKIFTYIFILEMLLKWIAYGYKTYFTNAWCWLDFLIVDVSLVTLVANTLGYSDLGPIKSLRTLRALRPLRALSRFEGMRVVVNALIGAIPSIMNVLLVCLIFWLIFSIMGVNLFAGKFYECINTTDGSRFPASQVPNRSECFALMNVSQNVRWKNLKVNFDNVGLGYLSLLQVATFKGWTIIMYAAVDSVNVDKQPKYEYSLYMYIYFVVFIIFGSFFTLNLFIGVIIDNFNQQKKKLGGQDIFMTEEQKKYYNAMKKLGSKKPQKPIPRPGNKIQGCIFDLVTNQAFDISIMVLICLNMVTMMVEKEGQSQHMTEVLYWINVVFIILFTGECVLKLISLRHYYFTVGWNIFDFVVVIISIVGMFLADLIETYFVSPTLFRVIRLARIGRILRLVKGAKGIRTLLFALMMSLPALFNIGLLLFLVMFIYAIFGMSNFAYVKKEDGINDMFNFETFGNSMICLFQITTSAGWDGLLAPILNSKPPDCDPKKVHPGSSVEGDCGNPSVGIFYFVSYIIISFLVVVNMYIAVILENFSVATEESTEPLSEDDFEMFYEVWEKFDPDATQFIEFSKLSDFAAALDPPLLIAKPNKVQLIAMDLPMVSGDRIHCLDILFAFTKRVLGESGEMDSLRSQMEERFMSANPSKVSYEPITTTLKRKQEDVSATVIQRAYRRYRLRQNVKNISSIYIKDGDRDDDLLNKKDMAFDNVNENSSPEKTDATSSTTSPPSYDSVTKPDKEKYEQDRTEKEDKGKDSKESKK
T3 sequence (Q07699 19-218, further chain): as the sequence (Q07699 19-218, further chain) above

Structure (SMILES)	IC50 [1] [µM]	IC50 [2] [µM]	IC50 [3] [µM]
CC(C)C[C@H](NC(=O)[C@H](Cc1ccc(O)cc1)NC(=O)[C@H](Cc1ccc(O)cc1)NC(=O)[C@H](CCCNC(=N)N)NC(=O)[C@@H]1CSSC[C@@H]2NC(=O)[C@H](CCCCN)NC(=O)[C@H](CC(N)=O)NC(=O)[C@H](CC(N)=O)NC(=O)[C@H](CC(N)=O)NC(=O)[C@@H]3CCCN3C(=O)[C@H](CC(=O)O)NC(=O)[C@@H]3CSSC[C@H](NC(=O)[C@H](C(C)C)NC(=O)[C@H](Cc4ccc(O)cc4)NC(=O)CNC(=O)[C@H](CCC(=O)O)NC(=O)[C@H](CSSC[C@H](NC(=O)CNC(=O)CN)C(=O)N[C@@H](CC(C)C)C(=O)NCC(=O)N[C@@H](Cc4c[nH]c5ccccc45)C(=O)N[C@@H](Cc4ccccc4)C(=O)N[C@@H](CO)C(=O)NCC(=O)N3)NC2=O)C(=O)N[C@@H](Cc2c[nH]cn2)C(=O)N[C@@H](Cc2c[nH]c3ccccc23)C(=O)N[C@@H](CCCCN)C(=O)N[C@@H](Cc2ccc(O)cc2)C(=O)N2CCC[C@H]2C(=O)N[C@@H](Cc2c[nH]c3ccccc23)C(=O)N1)C(=O)O [D1G/D32Y] (H-GGCLGWFSGCDPNNNKCCEGYVCHWKYPWCRYYL-OH; disulfide 3-18, 10-23, 17-30)	0.086	0.111	0.091
CC(C)C[C@H](NC(=O)[C@H](CC(=O)O)NC(=O)[C@H](Cc1ccc(O)cc1)NC(=O)[C@H](CCCNC(=N)N)NC(=O)[C@@H]1CSSC[C@@H]2NC(=O)[C@H](CCCCN)NC(=O)[C@H](CC(N)=O)NC(=O)[C@H](CC(N)=O)NC(=O)[C@H](CC(N)=O)NC(=O)[C@@H]3CCCN3C(=O)[C@H](CC(=O)O)NC(=O)[C@@H]3CSSC[C@H](NC(=O)[C@H](C(C)C)NC(=O)[C@H](Cc4ccc(O)cc4)NC(=O)CNC(=O)[C@H](CCC(=O)O)NC(=O)[C@H](CSSC[C@H](NC(=O)CNC(=O)CN)C(=O)N[C@@H](CC(C)C)C(=O)NCC(=O)N[C@@H](Cc4c[nH]c5ccccc45)C(=O)N[C@@H](Cc4ccccc4)C(=O)N[C@@H](CO)C(=O)NCC(=O)N3)NC2=O)C(=O)N[C@@H](Cc2c[nH]cn2)C(=O)N[C@@H](Cc2c[nH]c3ccccc23)C(=O)N[C@@H](CCCCN)C(=O)N[C@@H](Cc2ccc(O)cc2)C(=O)N2CCC[C@H]2C(=O)N[C@@H](Cc2c[nH]c3ccccc23)C(=O)N1)C(=O)O [D1G]	0.192	0.499	0.307
CC(C)C[C@H](NC(=O)[C@H](CC(=O)O)NC(=O)[C@H](Cc1ccc(O)cc1)NC(=O)[C@H](CCCNC(=N)N)NC(=O)[C@@H]1CSSC[C@@H]2NC(=O)[C@H](CCCCN)NC(=O)[C@H](CC(N)=O)NC(=O)[C@H](CC(N)=O)NC(=O)[C@H](CC(N)=O)NC(=O)[C@@H]3CCCN3C(=O)[C@H](CC(=O)O)NC(=O)[C@@H]3CSSC[C@H](NC(=O)[C@H](C(C)C)NC(=O)[C@H](Cc4ccc(O)cc4)NC(=O)CNC(=O)[C@H](CCC(=O)O)NC(=O)[C@H](CSSC[C@H](NC(=O)[C@H](CCCCN)NC(=O)CN)C(=O)N[C@@H](CC(C)C)C(=O)NCC(=O)N[C@@H](Cc4c[nH]c5ccccc45)C(=O)N[C@@H](Cc4ccccc4)C(=O)N[C@@H](CO)C(=O)NCC(=O)N3)NC2=O)C(=O)N[C@@H](Cc2c[nH]cn2)C(=O)N[C@@H](Cc2c[nH]c3ccccc23)C(=O)N[C@@H](CCCCN)C(=O)N[C@@H](Cc2ccc(O)cc2)C(=O)N2CCC[C@H]2C(=O)N[C@@H](Cc2c[nH]c3ccccc23)C(=O)N1)C(=O)O [D1K]	0.097	0.196	0.24
CC(C)C[C@H](NC(=O)[C@H](C)NC(=O)[C@H](Cc1ccc(O)cc1)NC(=O)[C@H](CCCNC(=N)N)NC(=O)[C@@H]1CSSC[C@@H]2NC(=O)[C@H](CCCCN)NC(=O)[C@H](CC(N)=O)NC(=O)[C@H](CC(N)=O)NC(=O)[C@H](CC(N)=O)NC(=O)[C@@H]3CCCN3C(=O)[C@H](CC(=O)O)NC(=O)[C@@H]3CSSC[C@H](NC(=O)[C@H](C(C)C)NC(=O)[C@H](Cc4ccc(O)cc4)NC(=O)CNC(=O)[C@H](CCC(=O)O)NC(=O)[C@H](CSSC[C@H](NC(=O)[C@H](CC(=O)O)NC(=O)CN)C(=O)N[C@@H](CC(C)C)C(=O)NCC(=O)N[C@@H](Cc4c[nH]c5ccccc45)C(=O)N[C@@H](Cc4ccccc4)C(=O)N[C@@H](CO)C(=O)NCC(=O)N3)NC2=O)C(=O)N[C@@H](Cc2c[nH]cn2)C(=O)N[C@@H](Cc2c[nH]c3ccccc23)C(=O)N[C@@H](CCCCN)C(=O)N[C@@H](Cc2ccc(O)cc2)C(=O)N2CCC[C@H]2C(=O)N[C@@H](Cc2c[nH]c3ccccc23)C(=O)N1)C(=O)O [D32A]	0.11	0.221	0.118
CC(C)C[C@H](NC(=O)[C@H](Cc1ccccc1)NC(=O)[C@H](Cc1ccc(O)cc1)NC(=O)[C@H](CCCNC(=N)N)NC(=O)[C@@H]1CSSC[C@@H]2NC(=O)[C@H](CCCCN)NC(=O)[C@H](CC(N)=O)NC(=O)[C@H](CC(N)=O)NC(=O)[C@H](CC(N)=O)NC(=O)[C@@H]3CCCN3C(=O)[C@H](CC(=O)O)NC(=O)[C@@H]3CSSC[C@H](NC(=O)[C@H](C(C)C)NC(=O)[C@H](Cc4ccc(O)cc4)NC(=O)CNC(=O)[C@H](CCC(=O)O)NC(=O)[C@H](CSSC[C@H](NC(=O)[C@H](CC(=O)O)NC(=O)CN)C(=O)N[C@@H](CC(C)C)C(=O)NCC(=O)N[C@@H](Cc4c[nH]c5ccccc45)C(=O)N[C@@H](Cc4ccccc4)C(=O)N[C@@H](CO)C(=O)NCC(=O)N3)NC2=O)C(=O)N[C@@H](Cc2c[nH]cn2)C(=O)N[C@@H](Cc2c[nH]c3ccccc23)C(=O)N[C@@H](CCCCN)C(=O)N[C@@H](Cc2ccc(O)cc2)C(=O)N2CCC[C@H]2C(=O)N[C@@H](Cc2c[nH]c3ccccc23)C(=O)N1)C(=O)O [D32F]	0.219	0.162	0.203
CC(C)C[C@H](NC(=O)[C@H](CCCCN)NC(=O)[C@H](Cc1ccc(O)cc1)NC(=O)[C@H](CCCNC(=N)N)NC(=O)[C@@H]1CSSC[C@@H]2NC(=O)[C@H](CCCCN)NC(=O)[C@H](CC(N)=O)NC(=O)[C@H](CC(N)=O)NC(=O)[C@H](CC(N)=O)NC(=O)[C@@H]3CCCN3C(=O)[C@H](CC(=O)O)NC(=O)[C@@H]3CSSC[C@H](NC(=O)[C@H](C(C)C)NC(=O)[C@H](Cc4ccc(O)cc4)NC(=O)CNC(=O)[C@H](CCC(=O)O)NC(=O)[C@H](CSSC[C@H](NC(=O)[C@H](CC(=O)O)NC(=O)CN)C(=O)N[C@@H](CC(C)C)C(=O)NCC(=O)N[C@@H](Cc4c[nH]c5ccccc45)C(=O)N[C@@H](Cc4ccccc4)C(=O)N[C@@H](CO)C(=O)NCC(=O)N3)NC2=O)C(=O)N[C@@H](Cc2c[nH]cn2)C(=O)N[C@@H](Cc2c[nH]c3ccccc23)C(=O)N[C@@H](CCCCN)C(=O)N[C@@H](Cc2ccc(O)cc2)C(=O)N2CCC[C@H]2C(=O)N[C@@H](Cc2c[nH]c3ccccc23)C(=O)N1)C(=O)O [D32K]	0.075	0.098	0.086
CC(C)C[C@H](NC(=O)[C@H](CO)NC(=O)[C@H](Cc1ccc(O)cc1)NC(=O)[C@H](CCCNC(=N)N)NC(=O)[C@@H]1CSSC[C@@H]2NC(=O)[C@H](CCCCN)NC(=O)[C@H](CC(N)=O)NC(=O)[C@H](CC(N)=O)NC(=O)[C@H](CC(N)=O)NC(=O)[C@@H]3CCCN3C(=O)[C@H](CC(=O)O)NC(=O)[C@@H]3CSSC[C@H](NC(=O)[C@H](C(C)C)NC(=O)[C@H](Cc4ccc(O)cc4)NC(=O)CNC(=O)[C@H](CCC(=O)O)NC(=O)[C@H](CSSC[C@H](NC(=O)[C@H](CC(=O)O)NC(=O)CN)C(=O)N[C@@H](CC(C)C)C(=O)NCC(=O)N[C@@H](Cc4c[nH]c5ccccc45)C(=O)N[C@@H](Cc4ccccc4)C(=O)N[C@@H](CO)C(=O)NCC(=O)N3)NC2=O)C(=O)N[C@@H](Cc2c[nH]cn2)C(=O)N[C@@H](Cc2c[nH]c3ccccc23)C(=O)N[C@@H](CCCCN)C(=O)N[C@@H](Cc2ccc(O)cc2)C(=O)N2CCC[C@H]2C(=O)N[C@@H](Cc2c[nH]c3ccccc23)C(=O)N1)C(=O)O [D32S]	0.097	0.137	0.101
